# Measured values reported in patent publication US20250171423A1, “PHARMACEUTICAL COMPOUNDS FOR THE TREATMENT OF COMPLEMENT MEDIATED DISORDERS” (Achillion Pharmaceuticals, Inc., priority 2020, published 2025).
# Molecular target: T1, Human complement C1s enzyme (Homo sapiens, UniProt P09871)
# T1 construct: purified from human serum, Complement Technology, Inc; purchased Complement Technology, Inc; host or cells: human serum
# T1 sequence (P09871 438-688 limits assumed): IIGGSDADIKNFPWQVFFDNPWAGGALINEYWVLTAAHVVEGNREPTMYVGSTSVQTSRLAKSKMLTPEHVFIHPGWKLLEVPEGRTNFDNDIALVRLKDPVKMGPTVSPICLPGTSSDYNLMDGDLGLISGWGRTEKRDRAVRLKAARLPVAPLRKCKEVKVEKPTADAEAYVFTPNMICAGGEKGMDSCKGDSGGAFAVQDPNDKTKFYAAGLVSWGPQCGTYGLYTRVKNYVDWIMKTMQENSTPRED
# T1 sequence (P09871 16-437 partner limits assumed): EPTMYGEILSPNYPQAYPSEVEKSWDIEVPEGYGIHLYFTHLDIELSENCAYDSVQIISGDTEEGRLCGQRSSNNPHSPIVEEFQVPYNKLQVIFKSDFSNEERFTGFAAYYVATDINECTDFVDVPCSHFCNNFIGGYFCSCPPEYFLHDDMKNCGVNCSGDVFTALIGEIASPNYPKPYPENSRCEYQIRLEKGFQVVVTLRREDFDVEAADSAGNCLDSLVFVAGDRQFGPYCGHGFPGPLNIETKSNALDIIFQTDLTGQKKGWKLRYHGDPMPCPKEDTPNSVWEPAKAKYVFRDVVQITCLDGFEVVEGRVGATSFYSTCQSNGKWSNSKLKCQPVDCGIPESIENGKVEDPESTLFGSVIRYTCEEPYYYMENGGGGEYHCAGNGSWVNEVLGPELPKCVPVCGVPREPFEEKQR
# Assay: Human C1s Enzyme Assay
# Format: biochemical
# Conditions: human C1s 1.16 nM, 5 min preincubation, substrate Z-L-Lys-SBzl 100 μM, A405; read-out: C1s Protease Activity
# In short: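 IC50 values were fitted by nonlinear regression to rates measured as A405 every 30 s for 30 min. The thioester substrate Z-L-Lys-SBzl and Ellman's reagent were each at 100 μM. Serum-derived C1s at 1.16 nM final had 5 min of room-temperature preincubation with compound (pH 7.5 Tris buffer, 1 M NaCl).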
row,SMILES,IC50 [nM]
1,"C[C@@]12C[C@@H]1N(C(=O)CNC(=O)c1ccc(Oc3ccccc3)cc1)[C@H](C(=O)NCc1cc(C3=NCCN3)cs1)C2 [Compound 37, (1S,3S,5S)-N-((4-(4,5-dihydro-1H-imidazol-2-yl)thiophen-2-yl)methyl)-5-methyl-2-((4-phenoxybenzoyl)glycyl)-2-azabicyclo[3.1.0]hexane-3-carboxamide]",> 1000
2,"C[C@@]12C[C@@H]1N(C(=O)CNC(=O)c1ccc(Oc3ccc(C(F)(F)F)cc3)cc1)[C@H](C(=O)NCc1cc(C(=N)N)cs1)C2 [Compound 92, (1S,3S,5S)-N-((4-carbamimidoylthiophen-2-yl)methyl)-5-methyl-2-((4-(4-(trifluoro-methyl)phenoxy)benzoyl)glycyl)-2-azabicyclo[3.1.0]hexane-3-carboxamide]",100 to 1000
3,"COc1cccc(CNC(=O)[C@@H]2C[C@]3(C)C[C@@H]3N2C(=O)CNC(=O)c2ccc(Oc3ccccc3)cc2)c1 [Compound 42, (1S,3S,5S)-N-(3-methoxybenzyl)-5-methyl-2-((4-phenoxybenzoyl)-glycyl)-2-azabicyclo[3.1.0]hexane-3-carboxamide]",> 1000
4,"C[C@@]12C[C@@H]1N(C(=O)CNC(=O)c1ccc(Oc3ccccc3)cc1)[C@H](C(=O)Nc1ccc3c(C(=N)N)csc3c1)C2 [Compound 237, (1S,3S,5S)-N-(3-carbamimidoylbenzo[b]thiophen-6-yl)-5-methyl-2-((4-phenoxybenzoyl)glycyl)-2-azabicyclo[3.1.0]hexane-3-carboxamide]",100 to 1000
5,"CC(CCC(=O)NCC(=O)N1CC2(C[C@H]1C(=O)NCc1cc(C(=N)N)cs1)OCCO2)Oc1ccccc1 (stereo partly drawn) [Compound 97, (8S)-N-((4-carbamimidoylthiophen-2-yl)methyl)-7-((4-phenoxypentanoyl)glycyl)-1,4-dioxa-7-azaspiro[4.4]nonane-8-carboxamide]",< 100
6,"N=C(N)c1csc(CNC(=O)CNC(=O)CNC(=O)c2ccc(Oc3ccccc3)cc2)c1 [Compound 77, N-(2-((2-(((4-carbamimidoylthiophen-2-yl)methyl)amino)-2-oxoethyl)amino)-2-oxoethyl)-4-phenoxybenzamide]",100 to 1000
7,"C[C@@]12C[C@@H]1N(C(=O)CNC(=O)CCCOc1cccc(C(=O)O)c1)[C@H](C(=O)NCc1cc(C(=N)N)cs1)C2 [Compound 165, 3-(4-((2-((1S,3S,5S)-3-(((4-carbamimidoylthiophen-2-yl)methyl)carbamoyl)-5-methyl-2-azabicyclo[3.1.0]hexan-2-yl)-2-oxoethyl)amino)-4-oxobutoxy)benzoic acid]",< 100
8,"C[C@H](NC(=O)[C@@H]1C[C@]2(C)C[C@@H]2N1C(=O)CNC(=O)c1ccc(Oc2ccccc2)cc1)c1cc(C(=N)N)cs1 (single isomer, unassigned) [Compound 47, (1S,3S,5S)-N-((S*)-1-(4-carbamimidoylthiophen-2-yl)ethyl)-5-methyl-2-((4-phenoxy-benzoyl)glycyl)-2-azabicyclo[3.1.0]hexane-3-carboxamide]",< 100
9,"O=C(NCC(=O)N1CC2(C[C@H]1C(=O)NCc1cc(-c3ncc[nH]3)cs1)OCCO2)c1ccc(Oc2ccccc2)cc1 [Compound 259, (S)-N-((4-(1H-imidazol-2-yl)thiophen-2-yl)methyl)-7-((4-phenoxybenzoyl)glycyl)-1,4-dioxa-7-azaspiro[4.4]nonane-8-carboxamide]",< 100
10,"N=C(N)c1csc(CNC(=O)[C@@H]2CC(=C(F)F)CN2C(=O)CNC(=O)CCCOc2ccccc2)c1 [Compound 26, (S)-N-((4-carbamimidoylthiophen-2-yl)methyl)-4-(difluoromethylene)-1-((4-phenoxy-butanoyl)glycyl)pyrrolidine-2-carboxamide]",< 100
11,"CC(C)(C)c1ccc(OCCCC(=O)NCC(=O)N2[C@H]3C[C@@]3(C)C[C@H]2C(=O)NCc2cc(C(=N)N)cs2)cc1 [Compound 87, (1S,3S,5S)-2-((4-(4-(tert-butyl)phenoxy)butanoyl)glycyl)-N-((4-carbamimidoyl-thiophen-2-yl)methyl)-5-methyl-2-azabicyclo[3.1.0]hexane-3-carboxamide]",< 100
12,"N=C(N)c1csc([C@H](CO)NC(=O)[C@@H]2C[C@@H](OC(F)F)CN2C(=O)CNC(=O)c2ccc(Oc3ccccc3)cc2)c1 [Compound 198, (2S,4R)-N-((S)-1-(4-carbamimidoylthiophen-2-yl)-2-hydroxyethyl)-4-(difluoromethoxy)-1-((4-phenoxybenzoyl)glycyl)pyrrolidine-2-carboxamide]",< 100
13,"N=C(N)c1csc(C(NC(=O)[C@@H]2C[C@@H](OC(F)F)CN2C(=O)CNC(=O)c2ccc(Oc3ccccc3)cc2)C(=O)O)c1 (stereo partly drawn) [Compound 190, 2-(4-carbamimidoylthiophen-2-yl)-2-((2S,4R)-4-(difluoromethoxy)-1-((4-phenoxybenzoyl)glycyl)pyrrolidine-2-carboxamido)acetic acid]",< 100
14,"Cc1sc(CNC(=O)[C@@H]2C[C@]3(C)C[C@@H]3N2C(=O)CNC(=O)c2ccc(Oc3ccccc3)cc2)cc1C(=N)N [Compound 204, (1S,3S,5S)-N-((4-carbamimidoyl-5-methylthiophen-2-yl)methyl)-5-methyl-2-((4-phenoxybenzoyl)glycyl)-2-azabicyclo[3.1.0]hexane-3-carboxamide]",> 1000
15,"C[C@@H](NC(=O)[C@@H]1C[C@@H](OC(F)F)CN1C(=O)CNC(=O)c1ccc(Oc2ccccc2)cc1)c1cc(C(=N)N)cs1 [Compound 172, (2S,4R)-N-((R)-1-(4-carbamimidoylthiophen-2-yl)ethyl)-4-(difluoromethoxy)-1-((4-phenoxybenzoyl)glycyl)pyrrolidine-2-carboxamide]",< 100

# Continued, values first:
row,IC50 [nM],SMILES
1,< 100,"C[C@@H](NC(=O)[C@@H]1CC2(CCCC2)CN1C(=O)CNC(=O)CCCOc1ccccc1)c1cc(C(=N)N)cs1 [Compound 114, (S)-N-((R)-1-(4-carbamimidoylthiophen-2-yl)ethyl)-2-((4-phenoxybutanoyl)glycyl)-2-azaspiro[4.4]nonane-3-carboxamide]"
2,< 100,"C[C@@H](NC(=O)[C@@H]1CC2(CN1C(=O)CNC(=O)c1ccc(C(F)(F)F)cc1)OCCO2)c1cc(C(=N)N)cs1 [Compound 263, (S)-N-((R)-1-(4-carbamimidoylthiophen-2-yl)ethyl)-7-((4-(trifluoromethyl)benzoyl)glycyl)-1,4-dioxa-7-azaspiro[4.4]nonane-8-carboxamide]"
3,< 100,"C[C@@]12C[C@@H]1N(C(=O)CNC(=O)c1ccccc1Oc1ccccc1)[C@H](C(=O)NCc1cc(C(=N)N)cs1)C2 [Compound 145, (1S,3S,5S)-N-((4-carbamimidoylthiophen-2-yl)methyl)-5-methyl-2-((2-phenoxybenzoyl)glycyl)-2-azabicyclo[3.1.0]hexane-3-carboxamide]"
4,< 100,"C[C@@]12C[C@@H]1N(C(=O)CNC(=O)c1ccc(Oc3cccnc3)cn1)[C@H](C(=O)NCc1cc(C(=N)N)cs1)C2 [Compound 162, (1S,3S,5S)-N-((4-carbamimidoylthiophen-2-yl)methyl)-5-methyl-2-((5-(pyridin-3-yloxy)picolinoyl)glycyl)-2-azabicyclo[3.1.0]hexane-3-carboxamide]"
5,< 100,"N=C(N)c1csc(CNC(=O)[C@@H]2CC3(CN2C(=O)CNC(=O)CCCOc2ccc(F)cc2)OCCO3)c1 [Compound 65, (S)-N-((4-carbamimidoylthiophen-2-yl)methyl)-7-((4-(4-fluorophenoxy)butanoyl)glycyl)-1,4-dioxa-7-azaspiro[4.4]nonane-8-carboxamide]"
6,< 100,"COC[C@@]1(F)C[C@@H](C(=O)NCc2cc(C(=N)N)cs2)N(C(=O)CNC(=O)CCCOc2ccccc2)C1 [Compound 72, (2S,4R)-N-((4-carbamimidoylthiophen-2-yl)methyl)-4-fluoro-4-(methoxymethyl)-1-((4-phenoxybutanoyl)glycyl)pyrrolidine-2-carboxamide]"
7,< 100,"C[C@@H](C(=O)NCc1cc(C(=N)N)cs1)N(C)C(=O)CNC(=O)c1ccc(Oc2ccccc2)cc1 [Compound 126, (S)-N-(2-((1-(((4-carbamimidoylthiophen-2-yl)methyl)amino)-1-oxopropan-2-yl)(methyl)amino)-2-oxoethyl)-4-phenoxybenzamide]"
8,< 100,"CO[C@@H]1C[C@@H](C(=O)N[C@H](C)c2cc(C(=N)N)cs2)N(C(=O)CNC(=O)CCCOc2ccccc2)C1 [Compound 106, (2S,4R)-N-((R)-1-(4-carbamimidoylthiophen-2-yl)ethyl)-4-methoxy-1-((4-phenoxy-butanoyl)glycyl)pyrrolidine-2-carboxamide]"
9,< 100,"N=C(N)c1csc(CNC(=O)[C@@H]2C[C@H](C(F)F)CN2C(=O)CNC(=O)c2ccc(Oc3ccccc3)cc2)c1 [Compound 51, (2S,4S)-N-((4-carbamimidoylthiophen-2-yl)methyl)-4-(difluoromethyl)-1-((4-phenoxybenzoyl)glycyl)pyrrolidine-2-carboxamide]"
